# Measured values published in the METLIN SMRT retention time set (Domingo-Almenara et al. 2019).
# Experiment: gradient 5% acetonitrile 3 min, to 50% in 2 min, to 85% in 15 min, held 3 min, 100 µL/min
# Conditions: column: Zorbax Extend-C18 2.1 x 50 mm; eluents: water / acetonitrile, 0.1% formic acid
# In short: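 Pure standards were analyzed in mixtures of ~100 molecules using HPLC coupled to a quadrupole time-of-flight mass spectrometer, in both positive and negative ionization mode. Separation used a Zorbax Extend-C18 column (2.1 × 50 mm, 1.8 μm) at 100 μL/min, with water and acetonitrile each containing 0.1% formic acid. Dead and dwell volumes were 40 μL and 900 μL, and data were collected over 3 months. Retention time was read from computationally picked adduct peaks, each inspected manually.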
row,Compound,RP-LC retention time [s]
1,CC(C)c1ccc(NC(=O)C2CCN(S(=O)(=O)c3cn(C)cn3)CC2)cc1,797
2,COc1cccc(N2CCN(C(=O)c3cc4c(-c5cccs5)nn(-c5ccccc5)c4n3C)CC2)c1,1180
3,COC(=O)c1cc(S(=O)(=O)N2CCCC2C(=O)Nc2ccc(F)c(Cl)c2)cn1C (stereo not drawn),978
4,Cc1ccc(-c2cc3c4nnc(CCC(=O)NCCCOC(C)C)n4ccn3n2)cc1C,759
5,CCc1cnc2c(c1SCC(=O)N(C)c1ccccc1)c(=O)n(C)c(=O)n2C,800
6,O=C(COc1ccc(Cl)cc1)NCC1(c2ccc(F)cc2)CC1,988
7,O=C(Nc1ccccc1)N1CCc2nc(-c3ccccc3)ncc2C1,859
8,Cc1ccccc1NC(=O)C1CCCN(c2ccc3cc(S(=O)(=O)N4CCCCC4)ccc3n2)C1 (stereo not drawn),835
9,Cc1cccc(NS(=O)(=O)c2cn(C(C)C)c3ncccc23)c1C,946
10,CCOC(=O)CCNC(=O)C1CCCN(c2nccnc2Oc2ccc(C)cc2)C1 (stereo not drawn),884
11,COc1ccc(C(=O)N2C[C@@H]3C[C@H]2C[C@@H]3NC(=O)c2ccccc2)cc1OC,678
12,O=C(c1ccccc1F)N1CCc2nc(-c3ccccc3)ncc2C1,883
13,CCc1cccc(NC(=O)Cn2c(=O)n(-c3ccc(F)cc3)c(=O)c3c2cc(C)n3C)c1,914
14,Cc1oc(-c2ccccc2)nc1Cc1noc(-c2ccncc2)n1,920
15,Cc1sc2ccn(C)c(=O)c2c1C(=O)Nc1ccccc1,818
16,Cc1nn(-c2nc(-c3ccccc3)cs2)c(C)c1CC(=O)Nc1cccc(C(F)(F)F)c1,1270
17,Cc1noc2ncn(CC(=O)NCc3cccc(Br)c3)c(=O)c12,779
18,O=C(NCCc1csc(-c2cccs2)n1)C1CCN(C(=O)c2ccc(F)c(F)c2)CC1,809
19,Fc1ccc(C(OCCN2CCN(C/C=C/c3ccccc3)CC2)c2ccc(F)cc2)cc1,916
20,CCN(CC)C(=O)c1c(C)oc2ccn(Cc3ccc(F)cc3)c(=O)c12,787
21,COc1cc(Cl)c(C)cc1NC(=O)C1CCN(c2c(C(=O)N3CCOCC3)cnc3snc(C)c23)CC1,945
22,CNC(=O)c1nc(C(=O)NCc2ccc(C)cc2)cs1,739

row,Compound,RP-LC retention time [s]
1,O=C(N[C@H](Cc1ccccc1)C(=O)NCc1cscn1)c1ccc(F)cc1,1090
2,O=C(Cn1cccc(-c2nc(-c3ccc(Br)cc3)no2)c1=O)NCc1ccc(F)cc1,952
3,COc1ccc2c(c1)C1(CCN(C(=O)Nc3ccc(F)cc3)C1)C(=O)N2 (stereo not drawn),683
4,Cc1noc(-c2cccc(OC3CN(C(=O)c4cccn4C)C3)c2)n1,898
5,Cc1noc(-c2cccnc2N2CCCN(Cc3cc(F)cc(F)c3)CC2)n1,659
6,CN(C)c1ccc2c(c1)CN(C(=O)c1ccoc1)CCO2,573
7,Cc1cc(C(=O)NC(C)C)c2cc(Br)ccc2n1,702
8,CC(C)NC(=O)CN1CCN(Cc2nc(-c3ccc(N4CCCC4)nc3)no2)CC1,541
9,Cc1ccc(S(=O)(=O)Cc2nc(-c3ccc4c(c3)OCO4)no2)cc1,951
10,c1ccc(-c2nc3cc(-c4noc(-c5cccnc5)n4)ccc3o2)cc1,1290
11,COc1ccccc1N1CCN(c2cc(SCC(=O)NC(C)CCc3ccccc3)ncn2)CC1 (stereo not drawn),1020
12,Cc1noc(C)c1S(=O)(=O)N1CCC(CC(=O)NCCc2c[nH]c3ccccc23)CC1,816
13,O=C1CC(C(=O)N2CCN(c3ccccc3)CC2)CN1CCc1c[nH]c2ccc(F)cc12 (stereo not drawn),819
14,N#CCCc1ccc2c(c1)-c1[nH]c3ccc([N+](=O)[O-])cc3c1CC(=O)N2,778
15,Cn1cc(C=C2C(=O)Nc3cccnc32)c2ccccc21,750
16,COC(=O)C1=CN(c2cccc(Cl)c2)c2ccc(F)cc2S1(=O)=O,895
17,C=CCNC(=O)c1cc(C)nc2c(C)cc(C)cc12,644
18,Cc1ccc(C)c(NC(=O)Cn2c(N3CCC(C)CC3)nc(C)cc2=O)c1,772
19,COc1ccc(-c2ccnc3nc(Cc4ccc(F)cc4)nn23)c(F)c1,906
20,CCn1c(=O)c(C(=O)N2CCN(c3ccccn3)CC2)nc2ccccc21,588
21,CC(C)NC(=O)CSc1nnc2c3cc(-c4ccc(F)cc4)nn3ccn12,735
22,CC(CCc1ccccc1)NC(=O)CCc1c(-c2ccc(Cl)cc2)nc2ccccn12 (stereo not drawn),774

row,Compound,RP-LC retention time [s]
1,Cc1csc(-c2cc(S(=O)(=O)NCc3cccs3)c(C)n2C)n1,924
2,COc1cc(OC)cc(C(=O)N2CCC3(CC2)NC(=O)c2ccccc2N3C)c1,734
3,CC1=C(c2cccc(Br)c2)S(=O)(=O)N=C1N1CCN(c2ccccn2)CC1,686
4,CCN(C(=O)C1CCN(C(=O)c2ccc(F)cc2)CC1)C1CCCCC1,885
5,CCOc1ccc(NC(=O)Cn2c(N3CCOCC3)nc(CC)cc2=O)cc1,732
6,O=C(NCc1ccc(-c2noc(-c3cc(F)cc(F)c3)n2)s1)C1CC1,952
7,COc1ccc(NC(=O)Cn2nc(N3CCSCC3)c3ccccc3c2=O)cc1,1180
8,Cc1nnc(-c2cc(C)n(CC(=O)Nc3ccc(Cl)cc3C)c2C)o1,810
9,Cc1ccc(-c2noc(-c3cccc(S(=O)(=O)NCCN4CCCCCC4)c3)n2)cc1,794
10,O=C(C1CCCN(c2nnc3ccccn23)C1)N1CCN(c2ccccn2)CC1 (stereo not drawn),514
11,CCC(C)NC(=O)NC1CCN(C2=NS(=O)(=O)C(c3ccc(C)cc3)=C2C)CC1 (stereo not drawn),822
12,Cc1ccc(Cc2nnc(NC(=O)c3cc(C)n(C(C)C)n3)o2)cc1,802
13,O=C(NCCCn1c(-c2ccncc2)nc2cccnc21)Nc1ccc(F)c(Cl)c1,693
14,CC(C)CCNC(=O)N1CCCC(C)(C(=O)NCc2ccccc2)C1 (stereo not drawn),834
15,CCCCNC(=O)C1CCN(C(=O)c2cc3ccsc3n2Cc2cccc(OC)c2)CC1,948
16,O=C(Cn1nc(N2CCCCCC2)c2ccccc2c1=O)Nc1ccc2c(c1)OCCO2,1010
17,COc1ccc(NC2=NC(C)(CO)CS2)cc1 (stereo not drawn),638
18,O=C(Cn1ccc2sccc2c1=O)Nc1ccc(F)c(F)c1,752
19,COc1ccc(O)c(CNC2CCN(c3ccc(C(=O)NC4CC4)cn3)C2)c1 (stereo not drawn),546
20,O=C(C1=CN(c2cc(F)cc(F)c2)c2cc(F)ccc2S1(=O)=O)N1CCCC1,829
21,Cn1nc(C(=O)N2CCCC(C(=O)NC3CC3)C2)c2c1CCN(C(=O)Cc1ccc(Cl)cc1)C2 (stereo not drawn),693
22,C=Cc1ccc(CN2C(=O)N(c3cccc(F)c3)c3ncccc3S2(=O)=O)cc1,834

row,Compound,RP-LC retention time [s]
1,CCOC(=O)C1CCN(S(=O)(=O)c2ccc3c(c2)-c2oncc2CO3)CC1,908
2,O=C(Cc1nnc(-c2ccccc2)o1)NC1CCCCC1,787
3,CC1Oc2ccc(-c3csc(NC(=O)c4ccccc4)n3)cc2NC1=O (stereo not drawn),862
4,CCCNC(=O)CN1c2ccc(F)cc2-c2ccccc2S1(=O)=O,824
5,CSc1ccc(CCNC(=O)c2nc(N3CCOCC3)c3ccccc3n2)cc1,721
6,CCCn1c(=O)c(C)nc2cc(-c3noc(/C=C/c4ccc(OC)cc4)n3)ccc21,1210
7,CCCn1c(C)cnc1C1CN(S(=O)(=O)c2ccccc2)C1,565
8,COc1cc(NC(=O)CCc2c(C)nn(-c3cc(N(C)C)ncn3)c2C)cc(OC)c1,792
9,COc1ccc(CNC(=O)N2CCC(c3nc(C(=O)N4CCOCC4)c(C)o3)CC2)cc1,671
10,CCCOc1cccc(C(=O)N(Cc2ccc(Br)o2)C2CCS(=O)(=O)C2)c1 (stereo not drawn),1010
11,CCOc1cc(=O)n2c(c1C(=O)Nc1cc(OC)cc(OC)c1)CCCC2,718
12,CC(C)(C)NC(=O)N[C@H](C(=O)N1C[C@H]2[C@@H]([C@H]1C(=O)NC(CC1CCC1)C(=O)C(N)=O)C2(C)C)C(C)(C)C (stereo partly drawn),1020
13,C=Cc1ccc(Cn2c(C)c(CNCCc3ccco3)c(C(=O)O)c2C)cc1,755
14,CCOC(=O)Cc1csc(NC(=O)Cc2csc(Nc3nc(C)cc(C)n3)n2)n1,769
15,O=C(Cc1csc(NC(=O)Nc2ccccc2)n1)NCCc1c[nH]c2ccccc12,891
16,CCn1cc(CN2CCC(N3C(=O)C4(CCCCC4)C3c3ccncc3)CC2)c(C)n1 (stereo not drawn),532
17,CCS(=O)(=O)Nc1ccc(C2(C(=O)NCC(C)C)CCCCC2)cc1,879
18,Cc1nn(C)c(C)c1S(=O)(=O)NCCc1noc(-c2cccnc2)n1,643
19,Fc1cccc(-c2noc(CSc3nccn3-c3ccccc3)n2)c1,916
20,Cc1cc(Nc2ccc(NC(=O)c3ccc4c(c3)OCO4)cc2)nc(N2CCOCC2)n1,656
21,COC(=O)c1cc(S(=O)(=O)N2CCCC2C(=O)NCc2ccccn2)cn1C (stereo not drawn),590
22,CC1(COc2ccc3c(c2)ncn3-c2ccc3cccc(N4CCC(N)CC4)c3n2)COC1,667
